Test results reported in patent publication US7919577B2, “Adrenocorticotropic hormone analogs and related methods” (Colorado Seminary, priority 2004, dated 2011).
No end group written: not given here.

System: dexamethasone-suppressed male FVB/N mice
Assay: in vivo Serum Corticosteroid Inhibition Assay (Example 2)
Set-up: species or system mouse
Conditions: for serum corticosterone at 180 minutes: blood one hour later; for reduction in serum corticosterone levels: ACTH alone normalized to 100%, FIG. 2; for corticosterone induction as percent of that of wildtype ACTH: 1 hour after last peptide injection
Description: The in vivo Serum Corticosteroid Inhibition Assay can include sequential administration of the test compound and the corticosteroid-producing compound by the following steps: first, an agent to suppress endogenous ACTH production was administered to a mouse subject, such as an intraperitoneal injection of dexamethasone; second, after waiting a suitable period of time for suppression of endogenous ACTH production (e.g., 1.5-2.0 hours), a test compound was administered to the mouse by a suitable method, such as intraperitoneal injection; third, after waiting a suitable period of time (e.g., 1 hour) for action of the test compound, a compound with corticosteroid-producing activity can be administered to the mouse by a suitable method, such as intraperitoneal injection; and fourth, after waiting a suitable period of time for the biological activity of both administered compounds to occur (e.g., 1 hour), a blood sample was taken from the subject and the level of serum corticosterone was determined by a suitable method, such as a competitive radioimmunoassay using ^125I RIA kit (ICN, Costa Mesa, Calif.). Optionally, steps two and three can be reversed (administering the corticosteroid-producing compound first, followed by administration of the test compound). The in vivo Serum Corticosteroid Inhibition Assay can also include co-administration of the test compound and the corticosteroid-producing compound by the following steps: first, an agent to suppress endogenous ACTH production was administered to a mouse subject, such as an intraperitoneal injection of dexamethasone; second, after waiting a suitable period of time for suppression of endogenous ACTH production (e.g., 1.5-2.0 hours), the corticosteroid-producing compound and a test compound were co-administered to the mouse by a suitable method, such as intraperitoneal injection; and third, after waiting a suitable period of time for the biological activity of both administered compounds to occur (e.g., 1 hour), a blood sample was taken from the subject and the level of serum corticosterone was determined by a suitable method, such as a competitive radioimmunoassay using ^125I RIA kit (ICN, Costa Mesa, Calif.). Also, in some embodiments, the first step in any in vivo Serum Corticosteroid Inhibition Assay can be replaced by a measurement of the initial endogenous corticosteroid or corticosteroid level in the blood of the subject in the manner of step four, instead of administering the agent to suppress ACTH production. Example 2 describes murine in vivo Serum Corticosteroid Inhibition Assays in detail.
A series of separate in vivo Serum Corticosteroid Inhibition Assays were performed to identify ACTH analogs that inhibit ACTH adrenal hormone production in vivo. The serum corticosterone levels of dexamethasone-suppressed mice were measured as described in Example 2 after administration of (1) ACTH (corticosteroid-producing compound), (2) an ACTH analog (test compound) followed by subsequent administration of ACTH, (3) a combination of ACTH and the ACTH analog and (4) the ACTH analog alone.
The in vivo Serum Corticosteroid Inhibition Assay was performed according the following method. The ACTH analog test compounds, such as those showing low activities in Example 1, were tested for their abilities to inhibit adrenal hormone production induced by unmodified ACTH.
First, two to three month-old male FVB/N mice from our colony, five per group, were injected intraperitoneally with dexamethasone (0.4 mg/0.1 ml PBS per mouse; Sigma, St. Louis, Mo.) to suppress their endogenous ACTH production.
Second, ninety to one hundred twenty minutes later, animals were injected subcutaneously between the shoulder blades with wild type ACTH and/or test ACTH analog peptides (1 μg/0.1 mL PBS/0.5% BSA) or with vehicle alone (0.1 mL PBS/0.5% BSA). […]

Substance: N-Ser^1-Tyr-Ser-Met-Glu^5-His-Phe-Arg-Trp-Gly^10-Lys-Pro-Val-Gly-Lys^15-Arg-Ala-Ala-Trp-Val^20-Lys-Val-Tyr-Pro-Ac (SYSMEHFRWGKPVGKRAAWVKVYP; not fully specified; printed as N-Ser1-Tyr-Ser-Met-Glu5-His-Phe-Arg-Trp-Gly10-Lys-Pro-Val-Gly-Lys15-Arg-Ala-Ala-Trp-Val20-Lys-Val-Tyr-Pro-Ac) [AT814]
- serum corticosterone at 180 minutes (ACTH analog alone 120 minutes after dexamethasone (AT), listed as (KKRRP15-19KRAAW) mACTH(1-24)): about 7±7 ng/mL
- serum corticosterone at 180 minutes (ACTH analog alone 120 minutes after dexamethasone (AT), listed as (KKRRP15-19KRAAW)mACTH(1-24)): 7 ± 7 ng/mL
- serum corticosterone at 180 minutes (ACTH analog at 90 minutes, mACTH(1-24) at 120 minutes after dexamethasone (AT90-ACTH120), listed as (KKRRP15-19KRAAW) mACTH(1-24)): 175 ± 27 ng/mL
- serum corticosterone at 180 minutes (ACTH analog at 90 minutes, mACTH(1-24) at 120 minutes after dexamethasone (AT90-ACTH120), listed as (KKRRP15-19KRAWW)mACTH(1-24)): 175 ± 27 ng/mL
- serum corticosterone at 180 minutes (ACTH analog together with mACTH(1-24) at 120 minutes after dexamethasone ((AT + ACTH)120)): 51 ± 8 ng/mL
- serum corticosterone at 180 minutes (ACTH analog together with mACTH(1-24) at 120 minutes after dexamethasone ((AT + ACTH)120), listed as (KKRRP15-19KRAAW)mACTH(1-24)): 51 ± 8 ng/mL
- reduction in serum corticosterone levels (analog 30 minutes before ACTH): ~65%
- reduction in serum corticosterone levels (analog concurrently with ACTH): ~90%
- corticosterone induction as percent of that of wildtype ACTH (applied 30 minutes before the ACTH injection): 35%
- corticosterone induction as percent of that of wildtype ACTH (applied at the same time as the ACTH injection): 10%
